Consider four molecules from US11332472B2, “Substituted piperidines as inhibitors of ubiquitin specific protease 7” (LES LABORATOIRES SERVIER, priority 2017, dated 2022).

For one test, the target named is T1, USP7 (Homo sapiens, UniProt Q93009, C315A).
T1 construct: 0.25 nM His-His-USP7 (aa208-560, [C315A]) was incubated with compound; His-His (N)
In words: Inhibition of USP7 by Fluorescence Intensity (FLINT) readings, Ubiquitin-Rhodamine-110 substrate. It counts as biochemical. As to conditions: 0.25 nM His-His-USP7 (aa208-560, [C315A]); compound 60 minutes at 30° C.; 500 nM Ubiquitin-Rhodamine substrate; 11-point curves. Put shortly:
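His-His-USP7 (aa208-560, C315A) at 0.25 nM was preincubated with compound for 60 min at 30 °C in 100 mM Bicine pH 8.0, 0.01% Triton X-100, 1 mM TCEP, 10% DMSO. 500 nM ubiquitin-rhodamine-110 was then added, with fluorescence (Ex 485/Em 535 nm) read every 3 min for 21 min. IC50 came from kinetic-rate inhibition, 11-point curves, 4-parameter fit.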

Test [1] concerns Z138 mantle cell lymphoma tumour cell line. Put plainly: In vitro cytotoxicity, MTT assay, Z138 cells. As to conditions: Homo sapiens, Z-138; Z138 tumour cell line (underlined values); 96 hours exposure. It counts as cell-based. The method, then:
(§1) The cytotoxicity studies were evaluated by MTT assay and carried out on MM 1S multiple myeloma or Z138 mantle cell lymphoma tumour cell lines. The cells are distributed onto microplates and exposed to the test compounds for 96 hours. The cell viability is then quantified by a colorimetric assay, the Microculture Tetrazolium Assay (Carmichael et. al., Cancer Res. […], 47, 936-942).

Test [2] relates to MM 1S multiple myeloma tumour cell line. Put plainly: In vitro cytotoxicity, MTT assay, MM1S cells. It counts as cell-based. As to conditions: Homo sapiens, MM1.S, 96 hours exposure. The method, then:
as §1

T1 sequence (Q93009 208-560 C315A): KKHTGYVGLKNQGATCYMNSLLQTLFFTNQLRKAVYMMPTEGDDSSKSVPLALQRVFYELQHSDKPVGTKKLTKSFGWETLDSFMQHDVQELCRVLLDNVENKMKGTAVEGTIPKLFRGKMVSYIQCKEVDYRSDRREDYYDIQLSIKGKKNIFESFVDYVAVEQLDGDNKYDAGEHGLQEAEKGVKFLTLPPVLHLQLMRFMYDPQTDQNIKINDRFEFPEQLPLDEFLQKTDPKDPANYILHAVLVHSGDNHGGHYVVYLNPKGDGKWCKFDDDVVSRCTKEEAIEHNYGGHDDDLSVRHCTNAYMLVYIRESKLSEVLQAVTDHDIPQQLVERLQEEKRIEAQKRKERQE

Consider `O=C([C@@H]1CCCC[C@H]1n1cccc1)N1CCC(O)(Cn2cnc3c(ccn3-c3ccccc3)c2=O)CC1` (single isomer, unassigned) [Example 14, 3-[[4-hydroxy-1-[trans-2-pyrrol-1-ylcyclohexanecarbonyl]-4-piperidyl]methyl]-7-phenyl-pyrrolo[2,3-d]pyrimidin-4-one], for which the values for the IC50 (at USP7; in test [1]; in test [2]) were 27.1 nM, 14.7 nM and 6.42 nM, respectively.
For the molecule `COc1ccc(-n2ccc3c(=O)n(CC4(O)CCN(C(=O)[C@@H]5CCC(F)(F)C[C@H]5c5ccccc5)CC4)cnc32)cc1` (single isomer, unassigned) [Example 34, 3-[[1-[trans-4,4-difluoro-2-phenyl-cyclohexanecarbonyl]-4-hydroxy-4-piperidyl]methyl]-7-(4-methoxyphenyl)pyrrolo[2,3-d]pyrimidin-4-one], the figures for the half-inhibitory concentration (IC50) (at USP7; in test [1]; in test [2]) were 23.1 nM, 5.66 nM and 24.5 nM, respectively.
Take `COc1ccc(-n2ccc3c(=O)n(CC4(O)CCN(C(=O)C5CCC(=O)N(C)C5c5ccccc5)CC4)cnc32)cc1` (single isomer, unassigned) [Example 117, 3-{[4-hydroxy-1-trans-1-methyl-6-oxo-2-phenylpiperidine-3-carbonyl)piperidin-4-yl]methyl}-7-(4-methoxyphenyl)-3,7-dihydro-4H-pyrrolo[2,3-d]pyrimidin-4-one]: the IC50 at USP7 came out at 30.9 nM; in test [2] it was 26.4 nM.
As to `O=C(C1CC(F)CCC1c1ccccc1)N1CCC(O)(Cn2cnc3c(ccn3-c3ccccc3)c2=O)CC1` (stereo not shown) [Example 37, 3-[[1-[5-fluoro-2-phenyl-cyclohexanecarbonyl]-4-hydroxy-4-piperidyl]methyl]-7-phenyl-pyrrolo[2,3-d]pyrimidin-4-one], the IC50 on USP7 worked out at 46.3 nM; in test [2], 84.1 nM.
